Source: US20170145472A1, “METHOD OF DETECTING HELICASE ACTIVITY” (University of Macau, priority 2015, published 2017)

Tests used:
[1] = Photophysical measurement; assay type: physicochemical; conditions: for Quantum yield: reference [Ru(bpy)3][PF6]2 in degassed acetonitrile
Description: Emission spectra and lifetime measurements for complexes were performed on a PTI TimeMaster C720 Spectrometer (Nitrogen laser: pulse output 337 nm) fitted with a 380 nm filter. Error limits were estimated: λ (±1 nm); τ (±10%); φ (±10%). All solvents used for the lifetime measurements were degassed using three cycles of freeze-vac-thaw.
Luminescence quantum yields were determined using the method of Demas and Crosby [Ru(bpy)3][PF6]2 in degassed acetonitrile as a standard reference solution (Φr=0.062) and calculated according to the following equation:
Φs=Φr(Br/Bs)(ns/nr)^2(Ds/Dr) • where the subscripts s and r refer to sample and reference standard solution respectively, n is the refractive index of the solvents, D is the integrated intensity, and Φ is the luminescence quantum yield. The quantity B was calculated by B=1−10^−AL, where A is the absorbance at the excitation wavelength and L is the optical path length.

helicase = target: T1, helicase (Hepatitis C virus genotype 1a, UniProt P27958); test: Luminescence response of complexes towards helicase alone; conditions: helicase alone, no DNA
T1 construct: upon the addition of 0.8 μM HCV NS3 helicase; purchased Prospec Inc. (Ness-Ziona, Israel)
From the text: M G-quadruplex DNA over helicase, IG4/Ihelicase refers to the ratio of the lunminscent response of PS2. M G-quadruplex DNA over helicase.

PS2.M G-quadruplex DNA = test: Luminescence response of Ir(III) complexes towards different forms of DNA; assay type: binding; conditions: complex 1 μM, DNA 5 μM; PS2.M G-quadruplex vs ds17 and CCR5-DEL
From the text: M G-quadruplex DNA (G4) over dsDNA (ds17) and ssDNA (CCRS-DEL), in particular IG4/IdsDNA refers to the ratio of the luminescent response of PS2. M G-quadruplex DNA over dsDNA (ds17); and IG4/IssDNA refers to the ratio of the luminescent response of PS2. M G-quadruplex DNA over ssDNA(CCR5-DEL).
M G-quadruplex DNA over dsDNA (ds17) and ssDNA (CCRS-DEL), in particular IG4/IdsDNA refers to the ratio of the luminescent response of PS2. M G-quadruplex DNA over dsDNA (ds17); and IG4/IssDNA refers to the ratio of the luminescent response of PS2. M G-quadruplex DNA over ssDNA(CCR5-DEL).
The G-quadruplex DNA-forming sequence (PS2. M) was annealed in Tris-HCl buffer (20 mM Tris, 100 mM KCl, pH 7.0) and were stored at −20° C. or less than −20° C. before use. Complex 1-17 (1 μM) was added to 5 μM of ssDNA, dsDNA or PS2. M G-quadruplex DNA in Tris-HCl buffer (20 mM Tris, pH 7.0).

HCV NS3 helicase = target: T2, HCV NS3 helicase (Hepatitis C virus genotype 1a, UniProt P27958); test: G-quadruplex-based luminescent HCV NS3 helicase activity assay; assay type: biochemical; conditions: for inhibitory activity towards HCV NS3 helicase: 10 μM inhibitor, 0.8 μM helicase
T2 construct: upon the addition of 0.8 μM HCV NS3 helicase; purchased Prospec Inc. (Ness-Ziona, Israel)
Description: The random-coil oligonucleotides ON1 (100 μM) and ON2 (100 μM) were incubated in Tris buffer (20 mM, pH 7.0). The solution was heated at a temperature of 72-98° C., in particular 95° C., for at least 30 seconds in particular 10 min, cooled to room temperature at 0.1° C./s, and further incubated at room temperature for 1 hour to ensure formation of the duplex substrate. The annealed product was stored at −20° C. before use. For assaying enzyme activity, 50 μL of Tris buffered solution (5 mM Tris-HCl, 5 mM NaCl, 1 mM MgCl2, 1 mM ATP, 0.1 mM DTT, pH 7.9) with the indicated concentrations of helicase or S1, Endo, DpnI, ExoI, EcoRI, RNase, DNase, and SSB were added to a solution containing the duplex substrate (0.25 μM). The mixture was heated to 37° C. for at least 30 minutes, e.g. 2 hours, to allow the indicated enzymes-catalyzed unwinding of the duplex substrate to take place. The duplex unwinding reaction was quenched by the addition of EDTA at a final concentration of 20 mM, and the mixture was subsequently diluted using Tris buffer (20 mM Tris, 20 mM KCl, 150 mM NH4Ac, pH 7.2) to a final volume of 500 μL. […] Emission spectra were recorded in the 500-720 nm range using an excitation wavelength of 360 nm.
For the detection of helicase activity in cell extract, 50 μL of Tris buffered solution (5 mM Tris-HCl, 5 mM NaCl, 1 mM MgCl2, 1 mM ATP, 0.1 mM DTT, pH 7.9) and the indicated concentrations of helicase were added to a solution containing the duplex substrate (0.25 μM) and cell extract. The mixture was heated to 37° C. for at least 30 minutes, e.g. 2 hours, to allow the helicase-catalyzed unwinding of the duplex substrate to take place. The duplex unwinding reaction was quenched by the addition of EDTA at a final concentration of 20 mM, and the mixture was subsequently diluted using Tris buffer (20 mM Tris, 20 mM KCl, 150 mM NH4Ac, pH 7.2) to a final volume of 500 μL. Finally, 1 μM of complex 9 was added to the mixture. Emission spectra were recorded in the 500-720 nm range using an excitation wavelength of 360 nm.

T2 sequence (P27958 1027-1657): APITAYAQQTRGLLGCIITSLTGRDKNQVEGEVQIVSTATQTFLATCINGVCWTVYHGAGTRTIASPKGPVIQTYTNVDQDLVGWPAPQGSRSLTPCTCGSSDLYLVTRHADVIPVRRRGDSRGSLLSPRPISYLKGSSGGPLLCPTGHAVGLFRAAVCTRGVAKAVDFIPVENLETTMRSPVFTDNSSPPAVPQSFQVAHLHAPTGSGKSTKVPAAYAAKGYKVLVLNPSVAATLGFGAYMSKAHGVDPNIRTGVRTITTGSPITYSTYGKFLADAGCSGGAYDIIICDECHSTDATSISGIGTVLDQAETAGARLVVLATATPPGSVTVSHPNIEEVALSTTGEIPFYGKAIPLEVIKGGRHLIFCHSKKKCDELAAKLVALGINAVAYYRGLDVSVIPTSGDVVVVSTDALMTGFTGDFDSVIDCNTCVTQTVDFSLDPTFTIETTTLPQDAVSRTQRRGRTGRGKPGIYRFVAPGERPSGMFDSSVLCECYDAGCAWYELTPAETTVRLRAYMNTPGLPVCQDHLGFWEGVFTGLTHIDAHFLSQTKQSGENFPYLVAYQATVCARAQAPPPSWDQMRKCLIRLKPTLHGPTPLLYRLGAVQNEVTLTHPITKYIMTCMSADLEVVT
T1 sequence (P27958 1027-1657): as above

Compound F[P-](F)(F)(F)(F)F.c1ccc(-c2ccc3ccc4ccc(-c5ccccc5)[n+]5c4c3[n+]2[Ir-3]523([c]4ccccc4-n4ccc[n+]42)[c]2ccccc2-n2ccc[n+]23)cc1 [Complex 1] has a Lifetime [1] of 3.29 μs, a λem [1] of 629 nm and a Quantum yield [1] of 0.13. For the same compound, the “luminescence enhancement in the presence of helicase only” value (“luminescence enhancement” for short) (helicase) was “enhanced in the presence of helicase only”.

In the case of Cc1c(C)c2cccnc2c2ncccc12.Cc1c[c-]c(-c2ccccn2)cc1.Cc1c[c-]c(-c2ccccn2)cc1.F[P-](F)(F)(F)(F)F.[Ir+3] [Complex 2], the Lifetime [1] is reported as 0.74 μs, the λem [1] is reported as 577 nm and the Quantum yield [1] is reported as 0.057. For the same compound, the “luminescence enhancement” value (helicase) was “enhanced in the presence of helicase only”.

In the case of Cc1cccc2[n+]1[Ir-3]13([c]4ccccc4-2)([c]2ccccc2-c2cccc(C)[n+]21)[n+]1ccc(-c2ccccc2)c2ccc4c(-c5ccccc5)cc[n+]3c4c21.F[P-](F)(F)(F)(F)F [Complex 5], the Lifetime [1] is reported as 1.23 μs, the λem [1] is reported as 590 nm and the Quantum yield [1] is reported as 0.12. For the same compound, the “selectivity of luminescence response for G-quadruplex DNA over dsDNA and ssDNA” value (shortened to “selectivity of luminescence response”) (PS2.M G-quadruplex DNA) was “non-selective for G-quadruplex DNA”.

Compound F[P-](F)(F)(F)(F)F.[Ir+3].[c-]1ccccc1-c1ncco1.[c-]1ccccc1-c1ncco1.c1ccc(-c2ccccn2)nc1 [Complex 6] has a Lifetime [1] of 0.28 μs, a λem [1] of 580 nm and a Quantum yield [1] of 0.089. For the same compound, the “selectivity of luminescence response” value (PS2.M G-quadruplex DNA) was “non-selective for G-quadruplex DNA”.

Clc1cc2cccnc2c2ncccc12.F[P-](F)(F)(F)(F)F.[Ir+3].[c-]1ccccc1-c1ccc2ccccc2n1.[c-]1ccccc1-c1ccc2ccccc2n1 [Complex 7] showed a Lifetime [1] of 1.34 μs, a λem [1] of 571 nm and a Quantum yield [1] of 0.056. The “selectivity of luminescence response” value (PS2.M G-quadruplex DNA) was “selective response for G-quadruplex DNA” and the “luminescence enhancement” value (helicase) was “not showing any luminescence enhancement towards helicase”.

Work on Clc1cc[n+]2c3c1ccc1c(Cl)cc[n+](c13)[Ir-3]213([c]2ccccc2-c2ccc4ccccc4[n+]21)[c]1ccccc1-c1ccc2ccccc2[n+]13.F[P-](F)(F)(F)(F)F [Complex 10] yielded a Lifetime [1] of 2.89 μs, a λem [1] of 590 nm and a Quantum yield [1] of 0.086.

Compound Cc1ccc2ccc3ccc(C)[n+]4c3c2[n+]1[Ir-3]412([c]3ccccc3-c3ccc4ccccc4[n+]31)[c]1ccccc1-c1ccc3ccccc3[n+]12.F[P-](F)(F)(F)(F)F [Complex 11] has a Lifetime [1] of 1.96 μs, a λem [1] of 570 nm and a Quantum yield [1] of 0.087.

Work on Cc1cc(-c2ccccc2)c2ccc3c(-c4ccccc4)cc(C)[n+]4c3c2[n+]1[Ir-3]412([c]3ccccc3-c3ccc4ccccc4[n+]31)[c]1ccccc1-c1ccc3ccccc3[n+]12.F[P-](F)(F)(F)(F)F [Complex 12] yielded a Lifetime [1] of 1.84 μs, a λem [1] of 575 nm and a Quantum yield [1] of 0.063.

F[P-](F)(F)(F)(F)F.c1cc[c]2c(c1)-c1ccc3ccccc3[n+]1[Ir-3]213([c]2ccccc2-c2ccc4ccccc4[n+]21)[n+]1cccc2c4nccnc4c4ccc[n+]3c4c21 [Complex 13] showed a Lifetime [1] of 4.61 μs, a λem [1] of 568 nm and a Quantum yield [1] of 0.067.

Compound F[P-](F)(F)(F)(F)F.c1ccc(-c2cc[n+]3c(c2)-c2cc(-c4ccccc4)cc[n+]2[Ir-3]324([c]3ccccc3-c3ccc5ccccc5[n+]32)[c]2ccccc2-c2ccc3ccccc3[n+]24)cc1 [Complex 14] has a Lifetime [1] of 4.586 μs, a λem [1] of 560 nm and a Quantum yield [1] of 0.15.

Compound Clc1cc2ccc[n+]3c2c2c1ccc[n+]2[Ir-3]312([c]3ccccc3-c3[nH]c4ccccc4[n+]31)[c]1ccccc1-c1[nH]c3ccccc3[n+]12.F[P-](F)(F)(F)(F)F [Complex 15] has a Lifetime [1] of 2.71 μs, a λem [1] of 620 nm and a Quantum yield [1] of 0.092.

Clc1cc2cccnc2c2ncccc12.F[P-](F)(F)(F)(F)F.[Ir+3].[c-]1ccccc1-c1ccccn1.[c-]1ccccc1-c1ccccn1 [Complex 17] gave a Lifetime [1] of 2.87 μs, a λem [1] of 608 nm and a Quantum yield [1] of 0.078.

For Brc1c(Br)c(Br)c2n[nH]nc2c1Br [TBBT, reference compound], the “inhibitory activity towards HCV NS3 helicase” value (HCV NS3 helicase) was “displayed inhibitory activity”.

With O=C(O)c1cn(C2CC2)c2cc(N3CCNCC3)c(F)cc2c1=O [ciprofloxacin, reference compound] the “decrease of luminescence signal of the system” value (HCV NS3 helicase; 10 μM of ciprofloxacin) was “about 40%” and the “luminescence signal of the system in the presence of inhibitor” value (HCV NS3 helicase; ciprofloxacin 0, 1, 2.5, 5, 10, 20 μM) was “diminished in the presence of ciprofloxacin in a dose-dependent manner”.

With Cc1ccc(C(=O)Nc2ccc(S(=O)(=O)O)c3cc(S(=O)(=O)O)cc(S(=O)(=O)O)c23)cc1NC(=O)c1cccc(NC(=O)Nc2cccc(C(=O)Nc3cc(C(=O)Nc4ccc(S(=O)(=O)O)c5cc(S(=O)(=O)O)cc(S(=O)(=O)O)c45)ccc3C)c2)c1 [suramin, reference compound] the “inhibitory activity towards HCV NS3 helicase” value (HCV NS3 helicase) was “displayed inhibitory activity”.

In the case of “single-stranded DNA binding protein: single-stranded DNA binding protein (SSB) purchased from New England Biolabs”, the “response of the complex 9+G-quadruplex DNA system to other enzymes or proteins (emission intensity)” value (HCV NS3 helicase; selectivity test, enzyme in place of helicase) is reported as “relatively low emission enhancement”.
